Test system: NOMO1
Test: cell viability relative to DMSO control; higher = less cytotoxic
Conditions: 48 h
In short: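 Cells were incubated for 48 h at 37°C before CellTiter-Glo One luminescence was read. The cells were NOMO1 or SEM (500 cells/well) or P12-Ichikawa (1000 cells/well) leukemia cells, adapted for at least four passages in each medium and seeded in 1536-well plates (5 μl). Dosing used library compounds in DMSO applied by pin over 11 threefold points, 47 μM to 0.79 nM. Viability is the per-plate percentage of DMSO wells, with cell-free wells as background.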

[1] = HPLM + 10% dialyzed FBS, 0.000781 µM
[2] = HPLM + 10% dialyzed FBS, 0.00234 µM
[3] = HPLM + 10% dialyzed FBS, 0.00702 µM
[4] = HPLM + 10% dialyzed FBS, 0.0211 µM
[5] = HPLM + 10% dialyzed FBS, 0.0632 µM
[6] = HPLM + 10% dialyzed FBS, 0.19 µM
[7] = HPLM + 10% dialyzed FBS, 0.569 µM
[8] = HPLM + 10% dialyzed FBS, 1.71 µM
[9] = HPLM + 10% dialyzed FBS, 5.12 µM
[10] = HPLM + 10% dialyzed FBS, 15.4 µM
[11] = HPLM + 10% dialyzed FBS, 46.1 µM
[12] = RPMI 5 mM glucose + 10% dialyzed FBS, 0.000781 µM
[13] = RPMI 5 mM glucose + 10% dialyzed FBS, 0.00234 µM
[14] = RPMI 5 mM glucose + 10% dialyzed FBS, 0.00702 µM
[15] = RPMI 5 mM glucose + 10% dialyzed FBS, 0.0211 µM
[16] = RPMI 5 mM glucose + 10% dialyzed FBS, 0.0632 µM
[17] = RPMI 5 mM glucose + 10% dialyzed FBS, 0.19 µM
[18] = RPMI 5 mM glucose + 10% dialyzed FBS, 0.569 µM
[19] = RPMI 5 mM glucose + 10% dialyzed FBS, 1.71 µM
[20] = RPMI 5 mM glucose + 10% dialyzed FBS, 5.12 µM
[21] = RPMI 5 mM glucose + 10% dialyzed FBS, 15.4 µM
[22] = RPMI 5 mM glucose + 10% dialyzed FBS, 46.1 µM
[23] = RPMI 5 mM glucose + 10% FBS, 0.000781 µM
[24] = RPMI 5 mM glucose + 10% FBS, 0.00234 µM
[25] = RPMI 5 mM glucose + 10% FBS, 0.00702 µM
[26] = RPMI 5 mM glucose + 10% FBS, 0.0211 µM
[27] = RPMI 5 mM glucose + 10% FBS, 0.0632 µM
[28] = RPMI 5 mM glucose + 10% FBS, 0.19 µM
[29] = RPMI 5 mM glucose + 10% FBS, 0.569 µM
[30] = RPMI 5 mM glucose + 10% FBS, 1.71 µM
[31] = RPMI 5 mM glucose + 10% FBS, 5.12 µM
[32] = RPMI 5 mM glucose + 10% FBS, 15.4 µM
[33] = RPMI 5 mM glucose + 10% FBS, 46.1 µM

| Structure (SMILES) | cell viability [1] [%] | cell viability [2] [%] | cell viability [3] [%] | cell viability [4] [%] | cell viability [5] [%] | cell viability [6] [%] | cell viability [7] [%] | cell viability [8] [%] | cell viability [9] [%] | cell viability [10] [%] | cell viability [11] [%] | cell viability [12] [%] | cell viability [13] [%] | cell viability [14] [%] | cell viability [15] [%] | cell viability [16] [%] | cell viability [17] [%] | cell viability [18] [%] | cell viability [19] [%] | cell viability [20] [%] | cell viability [21] [%] | cell viability [22] [%] | cell viability [23] [%] | cell viability [24] [%] | cell viability [25] [%] | cell viability [26] [%] | cell viability [27] [%] | cell viability [28] [%] | cell viability [29] [%] | cell viability [30] [%] | cell viability [31] [%] | cell viability [32] [%] | cell viability [33] [%] |
| --- | --- | --- | --- | --- | --- | --- | --- | --- | --- | --- | --- | --- | --- | --- | --- | --- | --- | --- | --- | --- | --- | --- | --- | --- | --- | --- | --- | --- | --- | --- | --- | --- | --- |
| C[C@]12CC[C@@H]3c4ccc(O)cc4CC[C@H]3[C@@H]1[C@@H](O)[C@@H](O)[C@@H]2O | 117 | 121 | 124 | 123 | 121 | 127 | 116 | 128 | 103 | 110 | 102 | 106 | 138 | 118 | 142 | 140 | 141 | 131 | 134 | 150 | 128 | 130 |  |  |  |  |  |  |  |  |  |  |  |
| C[C@]12COC(=O)C[C@@H]1CC[C@@H]1[C@@H]2CC[C@@]2(C)[C@H]1CC[C@]2(C)O | 98 | 109 | 103 | 91.1 | 118 | 98 | 98.6 | 103 | 104 | 97.1 | 80 | 97.6 | 101 | 91.4 | 102 | 103 | 92.2 | 78.2 | 92 | 88.3 | 92.4 | 83.1 | 90.7 | 87.1 | 86.4 | 97.3 | 101 | 103 | 95.1 | 101 | 90.8 | 81.2 | 84.1 |
| C[C@H]1C[C@@H]2[C@H](CC[C@@]3(C)[C@H]2CC[C@]3(OC(C)=O)C(C)=O)[C@@]\4(C)CCC(=O)\C=C14 | 95.2 | 112 | 116 | 112 | 119 | 110 | 125 | 123 | 120 | 81.3 | 118 | 86.7 | 98.7 | 109 | 88.5 | 101 | 98.8 | 104 | 98 | 103 | 88.7 | 112 | 103 | 103 | 103 | 101 | 99.5 | 107 | 128 | 117 | 101 | 95.9 | 103 |
| O=C(O)C1(Cc2cccc(Nc3nccs3)n2)CCC(Oc2cccc(Cl)c2F)CC1 (centres undefined) | 98.9 | 116 | 117 | 108 | 104 | 116 | 120 | 69.6 | 45.3 | 34.2 | 35.5 | 107 | 104 | 98.8 | 104 | 105 | 105 | 102 | 72 | 50.4 | 34.4 | 34 | 110 | 96.2 | 99.5 | 91.9 | 106 | 102 | 96.9 | 74.1 | 43.7 | 31.8 | 23.2 |
| COC(=O)Nc1cc(Nc2cc(NC3CC3)c3ncc(C#N)n3n2)c(Cl)c(N2CCN(C)CC2)c1 | 117 | 114 | 104 | 107 | 108 | 112 | 93.7 | 86.7 | 64.5 | 45.6 | 4.67 | 104 | 98.2 | 99.4 | 94.3 | 93 | 106 | 85.3 | 66.9 | 45.1 | 34.5 | 3.22 | 88.7 | 112 | 108 | 110 | 93.3 | 110 | 84.5 | 89.7 | 57.6 | 30.1 | 4.34 |
| CN(C)[S+](=O)([O-])c1ccc2c(c1)C(=Cc1cc3c([nH]1)CCCC3)C(=O)N2 | 124 | 141 | 122 | 128 | 130 | 122 | 122 | 146 | 120 | 127 | 118 |  |  |  |  |  |  |  |  |  |  |  | 125 | 112 | 121 | 115 | 109 | 115 | 123 | 111 | 113 | 108 | 105 |
| CCCCC(=O)O[C@]1(C(=O)CO)[C@H](C)C[C@H]2[C@@H]3CCC4=CC(=O)C=C[C@]4(C)[C@@]3(F)[C@@H](O)C[C@@]21C | 122 | 129 | 124 | 135 | 131 | 124 | 127 | 122 | 123 | 123 | 116 |  |  |  |  |  |  |  |  |  |  |  |  |  |  |  |  |  |  |  |  |  |  |
| Cc1coc2c1C(=O)C(=O)c1c-2ccc2c(C)cccc12 |  |  |  |  |  |  |  |  |  |  |  | 116 | 111 | 111 | 113 | 117 | 108 | 106 | 130 | 97.7 | 105 | 106 | 126 | 113 | 125 | 110 | 112 | 128 | 118 | 114 | 89.4 | 103 | 91.2 |
| CCN1CCN(c2ccc(Nc3cc(N(C)C(=O)Nc4c(Cl)c(OC)cc(OC)c4Cl)ncn3)cc2)CC1 | 103 | 120 | 124 | 124 | 102 | 117 | 98.8 | 90.9 | 41.7 | 25.9 | 11.6 | 103 | 106 | 119 | 116 | 130 | 103 | 111 | 108 | 68.8 | 32.7 | 14.9 | 119 | 131 | 114 | 118 | 110 | 118 | 121 | 111 | 63.3 | 34.3 | 15.9 |
| C[C@@H]1COCCN1c1cc(C2([S@+](C)(=N)[O-])CC2)nc(-c2ccnc3[nH]ccc23)n1 | 94.9 | 116 | 119 | 121 | 127 | 120 | 91.9 | 67.7 | 34.5 | 27.6 | 24.6 | 97.6 | 107 | 114 | 119 | 122 | 120 | 116 | 98.2 | 39 | 22 | 22.3 | 102 | 114 | 114 | 119 | 115 | 130 | 114 | 103 | 59.4 | 24.5 | 17.9 |
| C[C@](O)(CS(=O)(=O)c1ccc(F)cc1)C(=O)Nc1ccc(C#N)c(C(F)(F)F)c1 | 106 | 100 | 111 | 121 | 126 | 128 | 104 | 123 | 115 | 116 | 134 | 112 | 119 | 132 | 135 | 127 | 124 | 129 | 131 | 129 | 120 | 131 | 103 | 108 | 128 | 140 | 133 | 141 | 134 | 128 | 126 | 133 | 137 |
| CCOC(=O)N1CCN(/[N+]([O-])=N/Oc2ccc([N+](=O)[O-])cc2C#N)CC1 | 118 | 99.3 | 109 | 110 | 135 | 114 | 117 | 97.1 | 39.5 | 39.6 | 36.1 | 92.8 | 106 | 129 | 111 | 126 | 115 | 118 | 108 | 30.8 | 24.6 | 18.3 | 98.4 | 97.4 | 114 | 105 | 102 | 105 | 122 | 120 | 24.5 | 24.6 | 18.2 |
| CC1CNc2c(cccc2[S+](=O)([O-])N[C@@H](CCCNC(=N)N)C(=O)N2CC[C@@H](C)C[C@@H]2C(=O)O)C1 (some centres undefined) | 117 | 101 | 106 | 106 | 104 | 94.9 | 106 | 114 | 101 | 112 | 123 | 86.3 | 87.7 | 101 | 107 | 97.6 | 94.3 | 101 | 110 | 99.6 | 111 | 102 | 98.3 | 87.9 | 99.4 | 96.9 | 103 | 98.2 | 100 | 93.3 | 96.6 | 100 | 95.1 |
| CC(C)(C)NC(=O)Nc1cccc(Nc2ncc(F)c(NC(C)(C)CO)n2)c1 | 99.9 | 115 | 133 | 140 | 112 | 137 | 122 | 130 | 127 | 111 | 108 |  |  |  |  |  |  |  |  |  |  |  | 123 | 115 | 127 | 112 | 135 | 112 | 120 | 133 | 111 | 69.8 | 98.4 |
| COc1cc(OC2CCN(C)CC2)ccc1Nc1ncc2c(n1)n(C1CCCC1)c(=O)n2C | 80.9 | 86.8 | 107 | 85.9 | 96.8 | 90.8 | 103 | 108 | 93.6 | 87.7 | 2.59 | 76.6 | 88.9 | 90.4 | 83.6 | 81.2 | 95.2 | 91.6 | 100 | 91.7 | 60.4 | 16.1 | 82.7 | 82.5 | 75.4 | 84.8 | 78.1 | 92.8 | 83.2 | 76.5 | 81.1 | 76.9 | 18.4 |

Reference: the supplement of paper PMC11451515
